Results: patent publication US5629298A, “Adenosine as a positive inotrop in the compromised heart” (University of Massachusetts Medical Center, priority 1995, dated 1997)
Read-outs that look alike come from different tables or passages of the source.

What was measured:
[1] = tested on: ventricular myocyte membrane adenylyl cyclase; experiment: Adenylyl cyclase activity of ventricular myocyte membranes; type: biochemical, rat
Protocol: After a 3-4 hour incubation period, myocytes were harvested by placing the culture dishes on ice; aspirating and discarding the culture medium; scraping the attached cells into 1 ml of ice cold buffer (pH 7.4) containing 10 mM HEPES and 1 mM dithiothreitol (DTT); and transferring the mixture to a 40 ml centrifuge tube. The culture dishes were rinsed twice with buffer, and the rinses were added to the centrifuge tube. The myocytes were centrifuged at 45,000 x g for 45 minutes and the supernatant was discarded. The pellet was resuspended in 40 mM HEPES (pH 7.4) to yield 3.5-4 mg protein/ml and homogenized with a small clearance Dounce tissue grinder (8 strokes). The membranes were centrifugated as described above, resuspended (3-4 mg protein/ml) in 40 mM HEPES (pH 7.4), and assayed for adenylyl cyclase activity immediately or stored at -80° C. and assayed within 10 days.
The assay system used to measure adenylyl cyclase activity minimizes the formation of endogenous adenosine. The assay used was essentially as described by Romano et al. (supra). Myocyte membranes (15-25 μg protein) were incubated in 50 μl of a buffer containing 40 mM HEPES (pH 7.4), 5 mM MgCl2, 1 mM DTT, 5.5 mM KCl, 0.1 mM 2'-deoxy-cAMP (dcAMP), 0.1 mM 2'-deoxy ATP (dATP), 20 mM phosphoenolpyruvate, 2 units pyruvate kinase, 0.25 units adenosine deaminase, 1 mM ascorbic acid, 100 mM NaCl, 0.1 mM ethyleneglycol-bis (β-aminoethylether) N,N,N',N',-tetroaceticacid (EGTA), 10 μM guanosine 5'-triphosphate (GTP), and ~2×10^6 counts/minutes of [α-^32 P]dATP for 20 minutes at 30° C. The reaction was stopped by adding 40 μl of a solution containing 2% sodium dodecyl sulfate (SDS), 45 mM ATP, 1.3 mM cAMP, and [^3 H]dcAMP (~4000 count/min) and by boiling for 2 minutes.

rat heart = experiment: Isolated perfused heart, normoperfused or hypoperfused (mechanically depressed): LVP, +dP/dtmax, -dP/dtmax; conditions: for activation at 0.01 µM: Rattus norvegicus, 5 seconds; for activation at 0.01 µM / effect on the contractile variables (LVP, +dP/dtmax, -dP/dtmax): normoperfusion; for activation at 0.01 µM / increase in +dP/dtmax / increase in -dP/dtmax / increase in LVP: isoproterenol 10^-8 M; for increase in +dP/dtmax / increase in -dP/dtmax / increase in LVP: hypoperfusion (mechanically depressed heart); for increase in +dP/dtmax / increase in -dP/dtmax / increase in LVP / effect on the contractile variables (LVP, +dP/dtmax, -dP/dtmax): adenosine 2×10^-5 M, DPCPX 2×10^-7 M; for effect on the contractile variables (LVP, +dP/dtmax, -dP/dtmax): CGS-21680 2×10^-6 M
Protocol: Male Sprague-Dawley rats (500-550 g) were anesthetized with pentobarbital (40 mg/kg, i.p.) and treated with heparin (500 units, i.p.) for 15 minutes. Hearts were excised, rinsed in iced physiological saline ("PS") and perfused with PS (37° C.) via an aortic cannula at a constant rate of 18-20 ml/min. Perfusion pressure ranged from 50 to 60 mm Hg. The PS contained: NaCl, 118 mM; KCl, 4.7 mM; CaCl2, 2.5 mM; NaHCO3, 25 mM; KH2 PO4, 1.2 mM; MgSO4 1.2 mM; glucose 10 mM; and pyruvate 1.8 mM. The pH was maintained at 7.4 by gassing the PS with a 95% O2 /5% CO2 gas mixture. Platinum wire electrodes were inserted into the right atrium to allow pacing of the heart (300 contractions per minute) throughout the perfusion period. Developed left ventricular pressure (LVP) was measured with a saline-filled balloon inserted into the lumen of the left ventricle via the left atrium and attached by a polyethylene cannula to a pressure transducer. The pressure signal was electronically differentiated to obtain the maximum rates of left ventricular pressure development (+dP/dtmax) and relaxation (-dP/dtmax). Balloon volume was varied until the maximal obtainable dP/dt was attained. This optimal preload, ranging from 5 to 10 mm Hg, was maintained constant, permitting isovolumic contraction of the heart. Aortic perfusion pressure was monitored with another pressure transducer. All the LVP, +dP/dtmax, -dP/dtmax and aortic perfusion data were continually recorded on a multichannel polygraph. At the end of the experiment, the wet heart weights were determined; they ranged from 1.4 to 1.8 g.
After instrumentation, the hearts were normoperfused at 18-20 ml/min for 20 minutes, resulting in an aortic perfusion pressure of 50-60 mm Hg. Isoproterenol, adenosine, CGS-21680, DPCPX, atenolol, or a combination of these agents was administered for 1 to 2 minutes, via the aortic perfusion cannula, at 1/100th the perfusion flow rate, to achieve the stated PS concentrations. Isoproterenol was administered for only 5 seconds. To cause mechanical depression of the perfused hearts, the perfusion flow was lowered 5-6 ml/min. The resulting aortic perfusion pressure decreased to 20-30 mm Hg. The various agents either alone or in combination were administered via the PS to the hypoperfused hearts at 1/100th the perfusion flow rate, at the concentrations indicated.

[2] = tested on: myocardial membrane adenylyl cyclase; experiment: Adenylyl cyclase activity of crude ventricular myocardial membranes; type: biochemical, rat
Protocol: Crude ventricular myocardial membranes were prepared according to the following procedure. Isolated rat hearts were perfused with 5 ml of ice cold saline (0.9% NaCl) to wash out the blood, minced into 2-3 mm^3 cubes, and placed in 10 ml of homogenization buffer (HB) containing 10 mM HEPES (pH 7.4), 1 mM ethylenediamine-tetraacetic acid (EDTA), 1 mM DTT and 10 μg/ml soybean trypsin inhibitor. The suspension was homogenized with a PT-10 PolytronTM generator at a speed of 6 for two 15-second periods separated by 15 seconds. The homogenized material was also treated with 2 strokes of a glass/teflon motor driven Potter-Elvehjen homogenizer operated at 1/2 full speed. Upon addition of 4.7 ml of HB containing 1.25M sucrose the homogenate was mixed and centrifugated at 1,000 x g for 15 minutes. The supernatant was filtered through 4 layers of cheesecloth and 14.5 ml HB was added. […] Membranes were assayed immediately for adenylyl cyclase activity. […] The formed [α-^32 […] separated from the [α-^32 P]dATP by sequential chromatography using columns of cation exchange resin AG 50W-X4 (200-400 mesh) and neutral alumnia AG 7 (100-200 mesh) after the methods of Salomon (Adv. Cyclic Nucleotide Res. 10:35 (1979). All results were corrected for column recovery of [^3 […] ranged between 60 and 90%. The activity of the adenylyl cyclase is expressed as pmol [α-^32 […] formed/min/mg protein.

| SMILES | increase in adenylyl cyclase activity ([1]; ISO at 0.1 μM in the presence of 1 μM PIA) | increase in adenylyl cyclase activity ([1]; ISO at 0.1 μM, in the absence of PIA) | ISO-induced increase in adenylyl cyclase activity ([1]; ISO at 0.1 μM, with PIA and DPCPX at 0.1 μM) | activation at 0.01 µM (rat heart; read-out: increase in +dP/dtmax) | activation at 0.01 µM (rat heart; read-out: increase in -dP/dtmax) | activation at 0.01 µM (rat heart; read-out: increase in LVP) | increase in +dP/dtmax (rat heart) | increase in -dP/dtmax (rat heart) | increase in LVP (rat heart) | adenylyl cyclase activity above basal levels ([1]; adenosine at 0 to 1 mM, absence or presence of 1 μM DPCPX, ventricular myocyte membranes) | adenylyl cyclase activity above basal levels ([2]; adenosine at 0 to 1 mM, absence or presence of 1 μM DPCPX, myocardium membranes) | effect on the contractile variables (LVP, +dP/dtmax, -dP/dtmax) (rat heart) | increase in cyclase activity ([1]; CGS-21680 in the presence of 0.1 μM DPCPX) | EC50 ([1]; in the presence of 0.1 μM DPCPX, read-out: EC50 for increase of adenylyl cyclase) | adenylyl cyclase response ([1]; no DPCPX, activating at 1-10 μM, reducing this activation at 0.1-1 mM) | adenylyl cyclase activity ([2]; homogenate of the rat heart ventricular myocardium, only at 1 MM CGS-21680) |
| --- | --- | --- | --- | --- | --- | --- | --- | --- | --- | --- | --- | --- | --- | --- | --- | --- |
| CC(C)NCC(O)c1ccc(O)c(O)c1 (centres unmarked) [ISO, isoproterenol] | 23% | 88% | 70% | 167% | 216% | 119% | 114% | 225% | 171% |  |  |  |  |  |  |  |
| Nc1ncnc2c1ncn2[C@@H]1O[C@H](CO)[C@@H](O)[C@H]1O [adenosine] |  |  |  |  |  |  | 25% | 33% | 26% | did not increase | did not increase | did not affect |  |  |  |  |
| CCNC(=O)[C@H]1O[C@@H](n2cnc3c(N)nc(NCCc4ccc(CCC(=O)O)cc4)nc32)[C@H](O)[C@@H]1O [CGS-21680, 2-p-(2-carboxy-ethyl)phenethyl-amino-5'-N-ethylcarboxamido-adenosine] |  |  |  |  |  |  |  |  |  |  |  | without affect | 49% | 260 ± 80 nM | biphasic response | increased |
